Like-named read-outs stand apart in the source and are kept apart here. Numbered stars: 1 amine (or outer) side, 2 acyl side, 3 side chain; on linkers, the order of the positions; unused ones are H or OH. Bridge positions count the residues as written; N and C are the ends. Square brackets hold non-standard residues; d marks the D form. Peptide text beside a SMILES is read from it. * marks the point of attachment. Orn(4R-OH,5R-OCH2CH2NMe3+) = C[N+](C)(C)CCO[C@@H](N[*:3])[C@H](O)C[C@H](N[*:1])C(=O)[*:2]; pTerphenylCO(4''-OnC5H11) = CCCCCOc1ccc(-c2ccc(-c3ccc(C(=O)*)cc3)cc2)cc1; hTyr(3S-OH,4S-OH) = N[C@H](C(=O)O)[C@H](O)[C@@H](O)c1ccc(O)cc1; Pro(3S-OH,4S-Me) = C[C@H]1CN[C@H](C(=O)O)[C@H]1O; Hyp = O=C(O)[C@@H]1C[C@@H](O)CN1
What was measured:
Assay type in all cases: in vivo, humans
healthy adults [1] = test: Single-ascending-dose phase 1 study: safety and tolerability
Experimental: (§1) The single-ascending-dose and multiple-ascending-dose studies were phase 1, randomized, double-blind, dose-escalation, placebo-controlled, single-center safety trials of CD101 IV in healthy adults (ClinicalTrials.gov identifiers: NCT02516904 for the single-ascending-dose study; NCT02551549 for the multiple-ascending-dose study). In the single-ascending-dose study, 4 cohorts (corresponding to doses of 50, 100, 200, and 400 mg) of 8 subjects (6 active and 2 placebo) received CD101 IV or placebo infused over 60 (±5) min. In the multiple-ascending-dose study, 3 cohorts (cohort 1, 100 mg ×2 doses; cohort 2, 200 mg ×2 doses; cohort 3, 400 mg ×3 doses) of 8 subjects (6 active and 2 placebo) received CD101 IV or placebo (normal saline solution) infused over 60 (±5) min, with doses separated by 7 days.
(§2) All subjects were monitored for AEs throughout the study until 21 days after the last dose of study drug. Electrocardiograms, hematology and serum chemistry evaluations, and UA were performed at screening, on day −1, and at various time points during and for 14 days after the dosing period. Subjects remained in the clinical research unit for observation and safety assessments from day −1 until 7 days after the last dose of study drug. Three additional safety assessments were performed at weekly follow-up visits following the last dose of study drug. The long follow-up period ensured that any delayed safety events were captured, since CD101 has a very long t1/2 and plasma levels are expected to persist for several weeks. Safety was assessed ≥5 days after dosing by study physicians to determine whether it was safe to proceed to the next dose.
(§3) Safety was assessed in the safety analysis population. Safety was evaluated by presenting summaries of AEs, ECGs, clinical laboratory evaluations (hematology evaluation, chemistry panel, and UA), and vital signs. Adverse events were coded using the Medical Dictionary for Regulatory Activities Version 18.0. A TEAE was an AE that occurred during or after study drug administration and up through 21 (±1) days after study drug administration. The incidence of TEAEs was summarized by system organ class and preferred term, by relationship to study drug, and by severity. In addition, the incidence of serious TEAEs and the incidence of TEAEs leading to discontinuation of study drug were summarized by system organ class and preferred term. Descriptive statistics for clinical laboratory test results and vital signs, and for changes from baseline, were summarized by time point. Incidences of potentially clinically significant clinical laboratory results and vital signs were also summarized by time point. The numbers and percentages of abnormal ECGs were summarized by time point.

[2] = Single-ascending-dose phase 1 study: plasma and urine pharmacokinetics; conditions: for Vd / clearance / half-life / Cmax: plasma, arithmetic mean; for Vd: iv; for Cmax: LC-MS/MS
Experimental: as §1
(§4) Extensive PK sampling from plasma and urine was performed for all subjects following study drug administration and over the 3 weeks after the last dose of study drug. Plasma and urine samples from subjects who received CD101 IV were analyzed by a bioanalytical laboratory for CD101 concentration using a validated liquid chromatography-tandem mass spectrometry method with a lower limit of quantitation of 10 ng/ml.
(§5) Pharmacokinetics were assessed in the PK analysis population and included Cmax, AUC, Cl, elimination rate constant (λz), and terminal t1/2. Plasma concentration-time profiles were constructed for each subject and dosing cohort. For each plasma concentration-time curve, PK parameters were determined directly from inspection of the data or calculated using noncompartmental methods with validated PK software (Phoenix WinNonlin, Version 6.3). Urine concentration data were used to determine renal excretion and drug recovery rates. The number of subjects was selected to allow sufficient evaluation of safety, tolerability, and PK and was consistent with phase 1 standards of practice ([44]).

[3] = Multiple-ascending-dose phase 1 study: plasma and urine pharmacokinetics; conditions: for Vd / clearance / half-life / level at 144 h: plasma; for Vd / clearance / half-life / level at 144 h / dose excreted: iv; for level at 144 h: read-out: trough concentration on day 7 (144 h postdose); for dose excreted: urine
Experimental: as §1, §4, §5

healthy adults [4] = test: Multiple-ascending-dose phase 1 study: safety and tolerability
Experimental: as §1, §2, §3

[5] = human, single 50 mg IV infusion over 1 h
[6] = human, single 100 mg IV infusion over 1 h
[7] = human, single 200 mg IV infusion over 1 h
[8] = human, single 400 mg IV infusion over 1 h
[9] = human, 100 mg, 100 mg IV once weekly x2, day 1, sampling interval 144 h, arithmetic mean
[10] = human, 100 mg, 100 mg IV once weekly x2, day 8, sampling interval 480 h, arithmetic mean
[11] = human, 200 mg, 200 mg IV once weekly x2, day 1, sampling interval 144 h, arithmetic mean
[12] = human, 200 mg, 200 mg IV once weekly x2, day 8, sampling interval 480 h, arithmetic mean
[13] = human, 400 mg, 400 mg IV once weekly x3, day 1, sampling interval 144 h, arithmetic mean
[14] = human, 400 mg, 400 mg IV once weekly x3, day 15, sampling interval 480 h, arithmetic mean
[15] = single and multiple doses, all dose levels

Structure (SMILES): CCCCCOc1ccc(-c2ccc(-c3ccc(C(=O)N[C@H]4C[C@@H](O)[C@@H](OCC[N+](C)(C)C)NC(=O)[C@@H]5[C@@H](O)[C@@H](C)CN5C(=O)[C@H]([C@@H](C)O)NC(=O)[C@H]([C@H](O)[C@@H](O)c5ccc(O)cc5)NC(=O)[C@@H]5C[C@@H](O)CN5C(=O)[C@H]([C@@H](C)O)NC4=O)cc3)cc2)cc1 [CD101] ({pTerphenylCO(4''-OnC5H11)}-[Orn(4R-OH,5R-OCH2CH2NMe3+)]T[Hyp][hTyr(3S-OH,4S-OH)]T[Pro(3S-OH,4S-Me)]; lactam 1-C)
- SAEs, severe AEs, withdrawals due to an AE, deaths (healthy adults [1]; both studies, all dose levels): no serious adverse events (SAEs), severe adverse events (AEs), withdrawals due to an AE, or deaths
- laboratory abnormalities, vital signs, ECG (healthy adults [1]; both studies, all dose levels): no clinically meaningful trends in postbaseline laboratory abnormalities
- overall safety and tolerability (healthy adults [1]; both studies, single dose up to 400 mg, multiple doses up to 400 mg once weekly for 3 weeks): safe and well tolerated at all dose levels tested
- subjects with gastrointestinal disorders (system organ class) (healthy adults [1]; cohort 1 (single 50 mg)): 2 [33%] subjects [%]
- subjects with musculoskeletal and connective tissue disorders (healthy adults [1]; cohort 1 (single 50 mg)): 2 [33%] subjects [%]
- subjects with gastrointestinal disorders (system organ class) (healthy adults [1]; cohort 3 (single 200 mg)): 2 [33%] subjects [%]
- subjects with general disorders and administration site conditions (healthy adults [1]; cohort 3 (single 200 mg)): 2 [33%] subjects [%]
- subjects with musculoskeletal and connective tissue disorders (healthy adults [1]; cohort 3 (single 200 mg)): 2 subjects
- subjects with moderate TEAEs (healthy adults [1]; cohort 3 (single 200 mg), ear pain): 1 subject
- subjects with musculoskeletal and connective tissue disorders (healthy adults [1]; cohort 4 (single 400 mg)): 1 subject
- subjects with moderate TEAEs (healthy adults [1]; cohort 4 (single 400 mg), headache): 1 subject
- Vd ([2]; human, 50 mg, single 50 mg IV infusion over 1 h, read-out: Vss (volume of distribution at steady state)): 36 L
- Vd ([2]; human, 50 mg, single 50 mg IV infusion over 1 h, read-out: Vz (apparent volume of distribution during terminal phase)): 43.2 L
- Vd ([2]; human, 100 mg, single 100 mg IV infusion over 1 h, read-out: Vss (volume of distribution at steady state)): 42.9 L
- Vd ([2]; human, 100 mg, single 100 mg IV infusion over 1 h, read-out: Vz (apparent volume of distribution during terminal phase)): 50.6 L
- Vd ([2]; human, 200 mg, single 200 mg IV infusion over 1 h, read-out: Vss (volume of distribution at steady state)): 34.4 L
- Vd ([2]; human, 200 mg, single 200 mg IV infusion over 1 h, read-out: Vz (apparent volume of distribution during terminal phase)): 39.7 L
- Vd ([2]; human, 400 mg, single 400 mg IV infusion over 1 h, read-out: Vss (volume of distribution at steady state)): 35.9 L
- Vd ([2]; human, 400 mg, single 400 mg IV infusion over 1 h, read-out: Vz (apparent volume of distribution during terminal phase)): 41.6 L
- clearance [2, 5]: 3.75 mL/min
- half-life [2, 5]: 133 h
- Cmax ([2]; human, single 100 mg IV infusion over 1 h, read-out: Cmax): 4860 ng/mL
- clearance [2, 6]: 4 mL/min
- half-life [2, 6]: 146 h
- clearance [2, 7]: 3.65 mL/min
- half-life [2, 7]: 125 h
- clearance [2, 8]: 3.77 mL/min
- half-life [2, 8]: 129 h
- Cmax ([2]; single 400 mg IV infusion over 1 h): 22700 ng/mL
- mean half-life (t1/2) through the first week (up to day 7) of plasma sampling ([2]; single 50 to 400 mg IV doses): > 80 h
- Vss ([3]; 100 mg IV once weekly x2, day 8, arithmetic mean): 29.3 L
- cumulative amount excreted in urine ([3]; cohort 1 (100 mg x2), day 1): 52.0 µg
- mean renal clearance ([3]; cohort 1 (100 mg x2), day 1): 0.1877 mL/h
- cumulative amount excreted in urine ([3]; cohort 1 (100 mg x2), day 8): 151.4 µg
- cumulative amount excreted in urine ([3]; cohort 2 (200 mg x2), day 1): 145.0 µg
- cumulative amount excreted in urine ([3]; cohort 2 (200 mg x2), day 8): 400.7 µg
- cumulative amount excreted in urine ([3]; cohort 3 (400 mg x3), day 1): 330.6 µg
- cumulative amount excreted in urine ([3]; cohort 3 (400 mg x3), day 15): 987.5 µg
- mean renal clearance ([3]; cohort 3 (400 mg x3), day 15): 0.5965 mL/h
- cumulative amount excreted in urine, times higher than on day 1 ([3]; days 8 and 15 vs day 1): approximately 3 times
- t1/2 ([3]; following the first dose): approximately 80 h
- Vd ([3]; human, 100 mg, 100 mg IV once weekly x2, day 1, arithmetic mean, read-out: Vss): 28.8 L
- Vd ([3]; human, 100 mg, 100 mg IV once weekly x2, day 1, arithmetic mean, read-out: Vz): 29.5 L
- clearance [3, 9]: 4.3 mL/min
- half-life [3, 9]: 79.1 h
- Vd ([3]; human, 100 mg, 100 mg IV once weekly x2, day 8, arithmetic mean, read-out: Vz): 33.8 L
- clearance [3, 10]: 2.48 mL/min
- half-life [3, 10]: 158 h
- Vd ([3]; human, 200 mg, 200 mg IV once weekly x2, day 1, arithmetic mean, read-out: Vss): 31.7 L
- Vd ([3]; human, 200 mg, 200 mg IV once weekly x2, day 1, arithmetic mean, read-out: Vz): 32.8 L
- clearance [3, 11]: 4.65 mL/min
- half-life [3, 11]: 81.3 h
- Vd ([3]; human, 200 mg, 200 mg IV once weekly x2, day 8, arithmetic mean, read-out: Vss): 28.5 L
- Vd ([3]; human, 200 mg, 200 mg IV once weekly x2, day 8, arithmetic mean, read-out: Vz): 30.9 L
- clearance [3, 12]: 2.58 mL/min
- half-life [3, 12]: 140 h
- Vd ([3]; human, 400 mg, 400 mg IV once weekly x3, day 1, arithmetic mean, read-out: Vss): 29.6 L
- Vd ([3]; human, 400 mg, 400 mg IV once weekly x3, day 1, arithmetic mean, read-out: Vz): 31.2 L
- clearance [3, 13]: 4.47 mL/min
- half-life [3, 13]: 81 h
- Vd ([3]; human, 400 mg, 400 mg IV once weekly x3, day 15, arithmetic mean, read-out: Vss): 25.4 L
- Vd ([3]; human, 400 mg, 400 mg IV once weekly x3, day 15, arithmetic mean, read-out: Vz): 27.9 L
- clearance [3, 14]: 2.1 mL/min
- half-life [3, 14]: 152 h
- level at 144 h ([3]; human, 400 mg, following the first dose): ~4000 ng/mL
- level at 144 h ([3]; human, 400 mg, following the third (last) dose): ~7000 ng/mL
- half-life ([3]; human, following the second or third dose): ~150 h
- dose excreted ([3]; human, all dose levels, both studies, read-out: fraction of dose excreted): < 1%
- dose excreted ([3]; human, LC-MS/MS, read-out: amount of CD101 excreted in urine): ≤ 0.26%
- AUC(0-t) ([3]; human, 200 mg IV once weekly x2, day 1, plasma, arithmetic mean, read-out: AUC0–168): 570 µg·h/mL
- Cmax ([3]; human, 400 mg IV once weekly x3, day 1, plasma, arithmetic mean): 22700 ng/mL
- apparent clearance [3, 15]: < 0.28 L/h
- half-life (t1/2) [3, 15]: > 80 h
- subjects with mild, transient infusion reactions (flushing, feeling hot, nausea, chest tightness) (healthy adults [4]; all CD101 cohorts, primarily cohort 3, most common with third dose): Four
- subjects with TEAEs related to study drug (healthy adults [4]; cohort 1 (100 mg x2 weeks)): 1 subject
- subjects with TEAEs related to study drug (healthy adults [4]; cohort 2 (200 mg x2 weeks)): 1 subject
- subjects with moderate TEAEs (healthy adults [4]; cohort 2 (200 mg x2 weeks), arthropod bite and pruritus): 1 subject
- subjects with TEAEs related to study drug (healthy adults [4]; cohort 3 (400 mg x3 weeks)): 4 subjects
- subjects with gastrointestinal disorders (system organ class) (healthy adults [4]; cohort 3 (400 mg x3 weeks)): 4 [67%] subjects [%]
- subjects with vascular disorders (system organ class) (healthy adults [4]; cohort 3 (400 mg x3 weeks)): 3 [50%] subjects [%]
- subjects with moderate TEAEs (healthy adults [4]; cohort 3 (400 mg x3 weeks), constipation and myalgia): 2 subjects

— paper PMC5278714, “Safety and Pharmacokinetics of CD101 IV, a Novel Echinocandin, in Healthy Adults” (Antimicrobial Agents and Chemotherapy, 2017)
